Laboratory results as given in patent US10471054B2, “CDK1 inhibitors of acetyl chrysin mannich base derivatives, synthesis and use thereof” (priority 2016, dated 2019).
In brackets after ≈: the same amount, converted by molar mass. Like-named read-outs stand apart in the source and are kept apart here.

Legend:
[1] = Pharmacokinetics by oral in monkey (urine drug concentration-time curve); format: in vivo; details: for Tmax: po
Experimental: Chromatographic conditions and the system applies: with C18 chromatographic column (acid the tall secretory effect, 5 μm, 4.6*150 mm), in acetonitrile-methanol-water-mesylate (25:20:55:0.15) as mobile phase, detection UV 283 nm, the velocity 1 ml/min, and the sample volume 20 μl. The theoretical plate number is not less than 2000 according to CH-j peak.
Sample solution: after the macaques were drugged, the catheter was inserted. The urine by oral CH-j 5 mg/kg is collected, added the methanol at 1:4 (v:v), centrifuge and remove the liquid to measure. Control solution is CH-j methanol solution 5 μg/ml. The log P of CH-j is larger, the fat solubility strong, and absorption distribution in the body very rapid, the urine drug concentration-time curve consistent with the typical two-compartment model. Tmax1, 1.3 h, Cmax1 is […]. […] The apparent distribution volume (Vd) 42 L, mainly distributed in body fluid (BA-j Vd 12.6 L, mainly distributed in blood. See Fitoterapia, 2015, 107: 36-34)
FIG. 5: The concentration of urine drug concentration-time curve in monkey (n=6) by CH-j oral 5 mg/kg, X-coordinate is oral CH-j time (h) and Y-coordinate is the concentration of CH-j (μM).

pKa = format: physicochemical
Experimental: (§1) CH-j is pKa 5.3, log P 1.63 in Octanol/Water at 37° C. […] (BA-j 77m/ml). CH-j belongs to BCS II (low solubility, high permeability) and solubility presents the pH dependence. […] CH-j is a pH dependent fast release. […] It is speculated that CH-j has more appropriate log P and solubility with more likely entering tissue cells than others solubility acetyl Chrysin Mannich base derivatives.
(§2) (about 20 times BA-f 277 μg/ml) and 564 μg/ml in water at 37° C. (about 1000 times BA-f 0.53m/ml). CH-f is BCS I (high solubility and permeability) and solubility presents the pH dependence. It is speculated that CH-f has more appropriate log P and solubility with entering systemic (blood system and tissue cells) than others solubility acetyl Chrysin Mannich base derivatives.

[2] = Tissue distribution in rat, 2 h; format: in vivo
Experimental: The distribution results of CH-j tissue distribution were shown in FIG. 6, when CH-j 100 mg/kg rat by venous intravenous (i.v.) or oral (p.o.) 2 h. […] CH-j by oral in the stomach concentration of the large, about 2 time higher than other tissues. […] Compared with the intravenous administration, the oral administration was completely absorbed and the bioavailability was close to 100%.
FIG. 6: 2 h distribution of the drug (100 mg/kg) by CH-j rats: Y-coordinate is the concentration of CH-j (μg/g), by intravenous (i.v.), by oral (p.o.).

[3] = system: 5 cancers cells (MCF-7, H-460, BGC-823, PC-3, Hep G2); assay: Anti-cancer cells proliferation activity, average of 5 cancer cells; format: cell-based; details: for IC50: average of 5 cancer cells
Excerpt: (§3) Anti-cancer cells proliferationactivity of in vitro CH-j and CH-f were shown in TABLE 2 for the results of the screening of 5 cancers cells.

Hep G2 [4] = assay: NaOCl level, BODTPY-OCl fluorescent probe imaging; format: cell-based; details: CH-j 40 μM or HCPT 5 μM for 4 h
Experimental: In vitro cultured Hep G2 was given by BODTPY-OCl selective fluorescent probe 5 μM for 0.5 h, added CH-j 40 μM or HCPT 5 μM for 4 h, and performed fluorescence imaging.

HIF-1β = HIF-1β expression in BGC-823, immune-printing; format: cell-based; details: 0, 2.5, 5, 10 μM for 1 h, then insulin
Experimental: (§4) BGC-823 was treated with 0, 2.5, 5, 10 μM CH-j for 1 h, then the 2 μM insulin was added, and 2 h were cultured, and the cells were collected and lysed.
(§5) FIG. 4: CH-j effect on the HIF-1 of BGC-823 was treated with 0, 2.5, 5, 10 μM CH-j for 1 h, then added 0.2 μM insulin culture for 24 h, and the HIF-1α and HIF-1β were determined by the immune imprinting method.

[5] = Pharmacokinetics by oral in monkey (urine drug concentration-time curve); format: in vivo; details: rhesus, monkey (n = 6), 3 mg/kg
MCF-7 = assay: Anti-cancer cells proliferation activity (MTT, 48 h); format: cell-based; details: Homo sapiens, MCF7, MCF-7, MTT
Excerpt: as §3

Hep G2 [6] = assay: as above; format: cell-based; details: Homo sapiens, HepG2
Excerpt: as §3

PC-3 = assay: as above; format: cell-based; details: Homo sapiens, PC-3, MTT
Excerpt: as §3

[7] = Solubility in Octanol, water and pH media; format: physicochemical
Experimental: The solubility and log P of acetyl ChrysinMannich base derivatives see TABLE 1.
as §1, §2

Bcl-2 = Bcl-2 expression in MCF-7; format: cell-based; details: 10 μM for 24 h
HIF-1α = HIF-1α expression in BGC-823, immune-printing; format: cell-based; details: 0, 2.5, 5, 10 μM for 1 h, then insulin
Experimental: as §4, §5

plasma proteins = assay: Protein binding rate and reversible binding rate; format: in vitro ADME
Experimental: (§6) The combination of drugs and plasma proteins is usually reversible, and the affinity strength is determined by the reversible binding rate of the drug-protein complex. Only free drugs can spread to the tissue through the lipid membrane. By modifying the structure of the drug, the effect of the drug on the target site can be improved by improving the reversible binding rate of the drug-protein complex.
(§7) The acidic part of polyphenol hydroxyl group is combined with lysine alkaline site in albumin structure. The protein binding rate and reversible binding rate of CH-j see TABLE 2.

[8] = Protein binding rate and reversible binding rate; format: in vitro ADME; details: plasma proteins
Experimental: as §6, §7

[9] = oral 5 mg/kg, monkey, urine drug concentration
[10] = oral, monkey (n = 6), 3 mg/kg in Table 4, 5 mg/kg in text

CC(=O)c1c(O)c(CN2CCC(O)CC2)c2oc(-c3ccccc3)cc(=O)c2c1O [CH-j, 6-Acetyl-5,7-dihydroxy-8-(4-hydroxy-piperidin-1-ylmethyl)-2-phenyl-chromen-4-one]
Maximum drug concentration, times higher than Chrysin ([1]; monkey, in vivo): about 40 times | Cmax1 [1, 9]: 26.4 µM | Cmax2, redistributive period [1, 9]: 13.2 µM | V d [1, 10]: 42 L | t1/2β [1, 10]: 6.2 h | Tmax ([1]; rhesus, monkey, urine, monkey (n = 6), 3 mg/kg in Table 4, 5 mg/kg in text, read-out: T max (Tmax1)): 1.3 h | Tmax ([1]; rhesus, monkey, urine, monkey (n = 6), 3 mg/kg in Table 4, 5 mg/kg in text, read-out: T max, redistributive period (Tmax2)): 9 h | concentration at 24 h ([1]; rhesus, urine, oral 5 mg/kg, monkey): < 3 µM | Cmax ([1]; rhesus, urine, oral, monkey (n = 6), 3 mg/kg in Table 4, 5 mg/kg in text): 26.4 µM | pKa (pKa): 5.3 | Concentration in the stomach relative to other tissues ([2]; 100 mg/kg rat, oral, 2 h): about 2 time | bioavailability ([2]; in vivo, rat 100 mg/kg, oral compared with intravenous): ~100% | Detection of prototype drug in blood, urine, tissues ([2]; rat): In the blood, urine, bile and tissues, the prototype drugs and metabolites can be detected | Blood-brain barrier passage ([2]; rat 100 mg/kg, 2 h): able to pass the blood-brain barrier | Anti-proliferative activity, times stronger than BA-j [3]: 2 times | Anti-proliferative activity, times stronger than Chrysin [3]: 5 times | IC50 [3]: 2.6 µg/mL | IC50 ([3]; MTT, 48 h): 6.3 µM | NaOCl, yellow green fluorescence (Hep G2 [4]): not present yellow green fluorescence | HIF-1β expression (HIF-1β): without affecting the expression of HIF-1β | AUC(0-inf) [5]: 20.4 µM·h | IC50 (MCF-7): 5.7 ± 1.24 µM | IC50 (Hep G2 [6]): 6 ± 1.5 µM | IC50 (PC-3): 6.2 ± 1.16 µM | BCS class [7]: BCS II | Solubility in Octanol relative to BA analogue ([7]; CH-j vs BA-j, CH-f vs BA-f, 37° C.): about 6 times | solubility ([7]; organic solvent or mixture, Octanol, 37° C., read-out: Solubility in Octanol): 2420 µg/mL (≈ 5910 µM) | solubility ([7]; pH 1.2, simulated gastric fluid, 0.1M HCl (pH1.2), 37° C., read-out: Solubility): 574 µg/mL (≈ 1400 µM) | solubility ([7]; pH 4.5, aqueous buffer, 0.05M NaAC-HAC buffered solution (pH4.5), 37° C., read-out: Solubility): 528 µg/mL (≈ 1290 µM) | solubility ([7]; pH 6.8, aqueous buffer, PBS (pH6.8), 37° C., read-out: Solubility): 78 µg/mL (≈ 191 µM) | solubility ([7]; water, 37° C., read-out: Solubility in H2O): 56 µg/mL (≈ 137 µM) | Bcl-2 expression (Bcl-2): Bcl-2 expression can be suppressed | HIF-1α expression (HIF-1α): inhibited HIF-1α expression in a dose-dependent manner | Reversie binding rate AV (plasma proteins; average of 3 concentrations): 90.0% | Reversie binding rate (plasma proteins; drug concentration 12.5 μg/ml): 90.3% | Reversie binding rate (plasma proteins; drug concentration 25 μg/ml): 89.6% | Reversie binding rate (plasma proteins; drug concentration 50 μg/ml): 90.1% | fraction unbound ([8]; average of 3 concentrations, read-out: Protein binding rate AV (converted)): 0.14 | fraction unbound at 12.5 μg/ml ([8]; drug concentration 12.5 μg/ml): 0.114 | fraction unbound at 25 μg/ml ([8]; drug concentration 25 μg/ml): 0.156 | fraction unbound at 50 μg/ml ([8]; drug concentration 50 μg/ml): 0.151
